According to ChEMBL document CHEMBL4507266, “Data for DCP probe BAY-784” (2021):

Legend:
Rattus norvegicus [1] = species on record: Rattus norvegicus; test: Inhibition of Glycine, Strychnine-Sensitive at 10 µM in the Eurofins-Panlabs radioligand binding assay (Eurofins_assay_239000); conditions: Compound concentration 10.0 uM
[2] = target: Acetylcholinesterase (Homo sapiens) (UniProt P22303); conditions: Compound concentration 10.0 uM
[3] = target: Epidermal growth factor receptor (Homo sapiens) (UniProt P00533); test: Protein Tyrosine Kinase, EGF Receptor Eurofins-Panlabs enzyme assay; parameters: substrate with concentration; conditions: Compound concentration 10.0 uM
Mus musculus = species on record: Mus musculus; test: Inhibition of Phorbol Ester at 10 µM in the Eurofins-Panlabs radioligand binding assay (Eurofins_assay_264500); parameters: ligand concentration 3 nM; conditions: Compound concentration 10.0 uM
[4] = target: Muscarinic acetylcholine receptor M3 (Homo sapiens) (UniProt P20309); conditions: Compound concentration 10.0 uM
[5] = target: Sodium-dependent dopamine transporter (Homo sapiens) (UniProt Q01959); conditions: Compound concentration 10.0 uM
[6] = target: T1, Alpha-2C adrenergic receptor (Homo sapiens) (UniProt P18825); test: Adrenergic alpha2C Eurofins-Panlabs radioligand binding assay; parameters: ligand concentration 1 nM, non-specific ligand with concentration 10 µM WB-4101, incubation time 60 min, incubation temperature 25 °C; conditions: Compound concentration 10.0 uM
T1 sequence (whole entry): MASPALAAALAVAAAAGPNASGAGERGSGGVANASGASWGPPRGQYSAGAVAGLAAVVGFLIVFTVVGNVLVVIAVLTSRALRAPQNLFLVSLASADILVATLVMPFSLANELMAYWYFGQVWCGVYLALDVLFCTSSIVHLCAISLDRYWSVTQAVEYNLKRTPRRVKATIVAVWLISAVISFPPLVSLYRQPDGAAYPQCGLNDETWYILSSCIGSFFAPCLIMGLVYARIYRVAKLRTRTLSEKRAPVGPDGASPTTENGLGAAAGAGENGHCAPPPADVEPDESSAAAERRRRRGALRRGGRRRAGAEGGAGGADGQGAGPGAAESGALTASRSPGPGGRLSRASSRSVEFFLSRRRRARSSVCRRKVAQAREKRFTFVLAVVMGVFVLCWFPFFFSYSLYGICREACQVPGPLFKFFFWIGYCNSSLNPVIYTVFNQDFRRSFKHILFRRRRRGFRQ

[7] = target: T2, D(4) dopamine receptor (Homo sapiens) (UniProt P21917); test: Inhibition of Dopamine D4.2 at 10 µM in the Eurofins-Panlabs radioligand binding assay (Eurofins_assay_219900); parameters: ligand concentration 0.5 nM; conditions: Compound concentration 10.0 uM
T2 sequence (whole entry): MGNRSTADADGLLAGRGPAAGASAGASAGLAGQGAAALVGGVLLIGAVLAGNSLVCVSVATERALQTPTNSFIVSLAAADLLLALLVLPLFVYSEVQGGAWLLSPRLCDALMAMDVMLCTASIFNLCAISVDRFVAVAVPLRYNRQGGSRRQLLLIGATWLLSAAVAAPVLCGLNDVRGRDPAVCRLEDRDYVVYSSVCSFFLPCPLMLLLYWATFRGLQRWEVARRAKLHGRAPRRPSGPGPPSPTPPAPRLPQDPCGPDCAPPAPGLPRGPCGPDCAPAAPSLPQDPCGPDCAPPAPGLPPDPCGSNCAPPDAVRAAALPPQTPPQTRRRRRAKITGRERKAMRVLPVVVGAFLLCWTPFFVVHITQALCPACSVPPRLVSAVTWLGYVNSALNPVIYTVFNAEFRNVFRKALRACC

Cannabinoid receptor 1 = Cannabinoid receptor 1 (Homo sapiens, UniProt P21554); test: Inhibition of Cannabinoid CB1 at compound concentration of 10.0 uM in the Eurofins-Panlabs radioligand binding assay (Eurofins_assay_217030); parameters: ligand concentration 2 nM, non-specific ligand with concentration 10 uM R(+)-WIN-55,212-2, incubation time 90 min, incubation temperature 37 C
Rattus norvegicus [8] = species on record: Rattus norvegicus; test: Testosterone Eurofins-Panlabs radioligand binding assay; parameters: ligand concentration 1.5 nM; conditions: Compound concentration 10.0 uM
[9] = target: Tyrosine-protein kinase Fyn (Homo sapiens) (UniProt P06241); test: Inhibition of Protein Tyrosine Kinase, Fyn at 10 µM in the Eurofins-Panlabs enzyme assay (Eurofins_assay_172020); parameters: substrate with concentration; conditions: Compound concentration 10.0 uM
[10] = target: Tyrosine-protein kinase Lck (Homo sapiens) (UniProt P06239); test: Inhibition of Protein Tyrosine Kinase, LCK at 10 µM in the Eurofins-Panlabs enzyme assay (Eurofins_assay_176020); conditions: Compound concentration 10.0 uM
[11] = target: 5-hydroxytryptamine receptor 5A (Homo sapiens) (UniProt P47898); conditions: Compound concentration 10.0 uM
[12] = target: T3, Muscarinic acetylcholine receptor M1 (Homo sapiens) (UniProt P11229); conditions: Compound concentration 10.0 uM
T3 sequence (whole entry): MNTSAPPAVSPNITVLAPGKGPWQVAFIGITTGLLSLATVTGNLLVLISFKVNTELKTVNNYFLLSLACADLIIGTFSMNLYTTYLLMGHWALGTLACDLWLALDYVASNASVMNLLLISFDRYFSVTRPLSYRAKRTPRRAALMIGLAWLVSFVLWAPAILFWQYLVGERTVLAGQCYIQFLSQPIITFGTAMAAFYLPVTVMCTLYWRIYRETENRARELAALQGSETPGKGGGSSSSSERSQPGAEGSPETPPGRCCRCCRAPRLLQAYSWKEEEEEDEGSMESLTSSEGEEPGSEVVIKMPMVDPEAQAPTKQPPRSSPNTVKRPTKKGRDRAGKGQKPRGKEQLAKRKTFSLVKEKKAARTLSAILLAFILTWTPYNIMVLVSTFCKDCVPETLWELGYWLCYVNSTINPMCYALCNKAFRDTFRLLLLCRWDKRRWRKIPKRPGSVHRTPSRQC

[13] = target: Melanocortin receptor 4 (Homo sapiens) (UniProt P32245); test: Inhibition of Melanocortin MC4 at 10 µM in the Eurofins-Panlabs radioligand binding assay (Eurofins_assay_251350); parameters: ligand concentration 0.02 nM; conditions: Compound concentration 10.0 uM
[14] = target: Melanocortin receptor 3 (Homo sapiens) (UniProt P41968); test: Inhibition of Melanocortin MC3 at 10 µM in the Eurofins-Panlabs radioligand binding assay (Eurofins_assay_251300); parameters: ligand concentration 0.035 nM; conditions: Compound concentration 10.0 uM
[15] = target: Adenosine receptor A2a (Homo sapiens) (UniProt P29274); conditions: Compound concentration 10.0 uM
[16] = target: L-type calcium channel, dihydropyridine site (Cav1.2 alpha-1C) (Homo sapiens, UniProt Q13936); test: Inhibition of Calcium Channel L-Type, Dihydropyridine at 10 µM in the Eurofins-Panlabs radioligand binding assay (Eurofins_assay_214600); parameters: ligand concentration 0.1 nM, non-specific ligand with concentration 1 µM Nitrendipine, incubation time 90 min, incubation temperature 25 °C; conditions: Wistar, rat, rat cerebral cortex preparation, probe [3H] Nitrendipine, 0.1 nM; compound concentration 10 uM; target entry is the homologue from another species
[17] = target: Neuropeptide Y receptor type 1 (Homo sapiens) (UniProt P25929); test: Inhibition of Neuropeptide Y Y1 at 10 µM in the Eurofins-Panlabs radioligand binding assay (Eurofins_assay_257010); conditions: Compound concentration 10.0 uM
[18] = target: Vasoactive intestinal polypeptide receptor 1 (Homo sapiens) (UniProt P32241); test: Inhibition of Vasoactive Intestinal Peptide VIP1 at 10 µM in the Eurofins-Panlabs radioligand binding assay (Eurofins_assay_287010); conditions: Compound concentration 10.0 uM
[19] = target: ATP-sensitive inward rectifier potassium channel 11 (Cricetulus griseus) (UniProt A0A3L7HHE1); test: Inhibition of Potassium Channel [KATP] at 10 µM in the Eurofins-Panlabs radioligand binding assay (Eurofins_assay_265600); conditions: Cricetinae; Compound concentration 10.0 uM
Rattus norvegicus [20] = species on record: Rattus norvegicus; conditions: Compound concentration 10.0 uM

Sequence of Tyrosine-protein kinase Fyn (Homo sapiens) (P06241 2-537 limits assumed): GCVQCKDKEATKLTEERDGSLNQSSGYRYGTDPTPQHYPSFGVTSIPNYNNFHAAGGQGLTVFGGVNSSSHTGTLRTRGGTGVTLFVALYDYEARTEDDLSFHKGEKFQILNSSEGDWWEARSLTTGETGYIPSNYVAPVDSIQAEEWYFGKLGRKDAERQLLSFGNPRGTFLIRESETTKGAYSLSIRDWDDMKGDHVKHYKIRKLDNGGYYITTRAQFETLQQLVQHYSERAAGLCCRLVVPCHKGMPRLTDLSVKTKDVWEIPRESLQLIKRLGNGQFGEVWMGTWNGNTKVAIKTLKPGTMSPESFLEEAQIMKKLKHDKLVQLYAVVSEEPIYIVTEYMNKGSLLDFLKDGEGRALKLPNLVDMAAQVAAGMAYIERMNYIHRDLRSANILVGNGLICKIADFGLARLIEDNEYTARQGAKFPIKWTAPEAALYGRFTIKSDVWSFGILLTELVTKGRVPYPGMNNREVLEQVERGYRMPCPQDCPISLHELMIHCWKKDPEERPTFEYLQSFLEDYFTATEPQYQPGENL
Sequence of Sodium-dependent dopamine transporter (Homo sapiens) (Q01959 whole entry): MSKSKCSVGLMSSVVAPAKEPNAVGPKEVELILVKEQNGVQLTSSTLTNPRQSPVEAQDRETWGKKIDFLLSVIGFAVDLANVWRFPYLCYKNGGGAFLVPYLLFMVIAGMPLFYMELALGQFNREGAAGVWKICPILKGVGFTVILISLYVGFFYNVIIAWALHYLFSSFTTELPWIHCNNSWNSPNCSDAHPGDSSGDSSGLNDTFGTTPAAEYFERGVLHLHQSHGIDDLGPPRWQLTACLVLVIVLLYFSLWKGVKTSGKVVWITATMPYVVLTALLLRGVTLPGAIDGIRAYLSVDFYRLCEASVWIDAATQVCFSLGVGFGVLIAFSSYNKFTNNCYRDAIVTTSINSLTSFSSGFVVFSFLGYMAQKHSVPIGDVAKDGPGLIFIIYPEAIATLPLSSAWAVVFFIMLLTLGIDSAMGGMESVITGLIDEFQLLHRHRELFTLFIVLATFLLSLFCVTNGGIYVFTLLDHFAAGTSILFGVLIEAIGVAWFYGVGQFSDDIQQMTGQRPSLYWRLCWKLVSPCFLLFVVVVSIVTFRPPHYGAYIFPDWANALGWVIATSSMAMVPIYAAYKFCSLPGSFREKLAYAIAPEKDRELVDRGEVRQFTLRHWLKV
Sequence of Acetylcholinesterase (Homo sapiens) (P22303 whole entry): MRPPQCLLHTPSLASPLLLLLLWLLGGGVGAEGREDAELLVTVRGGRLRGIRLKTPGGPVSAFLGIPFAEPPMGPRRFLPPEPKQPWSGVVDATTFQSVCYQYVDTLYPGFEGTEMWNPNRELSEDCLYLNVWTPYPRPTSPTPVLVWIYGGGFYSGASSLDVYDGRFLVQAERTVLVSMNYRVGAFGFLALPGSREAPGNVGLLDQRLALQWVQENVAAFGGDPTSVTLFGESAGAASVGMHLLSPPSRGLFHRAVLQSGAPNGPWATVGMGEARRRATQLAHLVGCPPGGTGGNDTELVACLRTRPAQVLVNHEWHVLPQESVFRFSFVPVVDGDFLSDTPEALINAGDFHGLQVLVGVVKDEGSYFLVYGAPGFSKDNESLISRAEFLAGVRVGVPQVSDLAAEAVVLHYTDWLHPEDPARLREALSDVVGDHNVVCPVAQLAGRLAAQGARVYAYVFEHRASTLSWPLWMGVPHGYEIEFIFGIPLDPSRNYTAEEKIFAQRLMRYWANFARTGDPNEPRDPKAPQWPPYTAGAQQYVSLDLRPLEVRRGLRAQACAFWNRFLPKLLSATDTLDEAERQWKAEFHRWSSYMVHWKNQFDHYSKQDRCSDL
Sequence of Melanocortin receptor 3 (Homo sapiens) (P41968 whole entry): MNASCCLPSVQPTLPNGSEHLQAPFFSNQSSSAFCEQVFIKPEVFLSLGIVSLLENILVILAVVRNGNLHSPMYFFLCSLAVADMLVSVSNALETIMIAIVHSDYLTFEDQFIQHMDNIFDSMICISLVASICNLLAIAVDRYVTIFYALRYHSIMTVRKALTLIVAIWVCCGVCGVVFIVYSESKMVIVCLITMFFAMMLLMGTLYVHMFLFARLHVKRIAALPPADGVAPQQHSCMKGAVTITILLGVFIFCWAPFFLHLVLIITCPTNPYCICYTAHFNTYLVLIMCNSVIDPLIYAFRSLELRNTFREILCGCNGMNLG
Sequence of ATP-sensitive inward rectifier potassium channel 11 (Cricetulus griseus) (A0A3L7HHE1 as listed by the source): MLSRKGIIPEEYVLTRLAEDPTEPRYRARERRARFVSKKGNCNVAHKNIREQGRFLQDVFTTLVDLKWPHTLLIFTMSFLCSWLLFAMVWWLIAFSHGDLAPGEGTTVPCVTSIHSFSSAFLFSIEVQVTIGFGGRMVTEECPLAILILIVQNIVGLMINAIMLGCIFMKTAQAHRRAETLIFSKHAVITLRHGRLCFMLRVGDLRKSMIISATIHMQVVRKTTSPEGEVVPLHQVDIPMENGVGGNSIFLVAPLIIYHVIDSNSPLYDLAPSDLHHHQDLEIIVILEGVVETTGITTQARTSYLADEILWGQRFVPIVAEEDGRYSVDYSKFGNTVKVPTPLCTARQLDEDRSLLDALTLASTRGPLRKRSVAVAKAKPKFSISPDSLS
Sequence of Melanocortin receptor 4 (Homo sapiens) (P32245 whole entry): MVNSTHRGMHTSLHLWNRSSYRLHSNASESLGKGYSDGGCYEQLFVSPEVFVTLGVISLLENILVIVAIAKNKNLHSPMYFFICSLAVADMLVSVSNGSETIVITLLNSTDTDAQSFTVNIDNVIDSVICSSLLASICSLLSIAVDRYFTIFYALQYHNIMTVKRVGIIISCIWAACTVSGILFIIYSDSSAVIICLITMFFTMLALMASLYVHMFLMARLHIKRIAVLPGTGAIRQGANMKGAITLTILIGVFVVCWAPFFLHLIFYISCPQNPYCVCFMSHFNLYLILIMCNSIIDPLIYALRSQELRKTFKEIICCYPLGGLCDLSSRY
Sequence of L-type calcium channel, dihydropyridine site (Cav1.2 alpha-1C) (Q13936 whole entry): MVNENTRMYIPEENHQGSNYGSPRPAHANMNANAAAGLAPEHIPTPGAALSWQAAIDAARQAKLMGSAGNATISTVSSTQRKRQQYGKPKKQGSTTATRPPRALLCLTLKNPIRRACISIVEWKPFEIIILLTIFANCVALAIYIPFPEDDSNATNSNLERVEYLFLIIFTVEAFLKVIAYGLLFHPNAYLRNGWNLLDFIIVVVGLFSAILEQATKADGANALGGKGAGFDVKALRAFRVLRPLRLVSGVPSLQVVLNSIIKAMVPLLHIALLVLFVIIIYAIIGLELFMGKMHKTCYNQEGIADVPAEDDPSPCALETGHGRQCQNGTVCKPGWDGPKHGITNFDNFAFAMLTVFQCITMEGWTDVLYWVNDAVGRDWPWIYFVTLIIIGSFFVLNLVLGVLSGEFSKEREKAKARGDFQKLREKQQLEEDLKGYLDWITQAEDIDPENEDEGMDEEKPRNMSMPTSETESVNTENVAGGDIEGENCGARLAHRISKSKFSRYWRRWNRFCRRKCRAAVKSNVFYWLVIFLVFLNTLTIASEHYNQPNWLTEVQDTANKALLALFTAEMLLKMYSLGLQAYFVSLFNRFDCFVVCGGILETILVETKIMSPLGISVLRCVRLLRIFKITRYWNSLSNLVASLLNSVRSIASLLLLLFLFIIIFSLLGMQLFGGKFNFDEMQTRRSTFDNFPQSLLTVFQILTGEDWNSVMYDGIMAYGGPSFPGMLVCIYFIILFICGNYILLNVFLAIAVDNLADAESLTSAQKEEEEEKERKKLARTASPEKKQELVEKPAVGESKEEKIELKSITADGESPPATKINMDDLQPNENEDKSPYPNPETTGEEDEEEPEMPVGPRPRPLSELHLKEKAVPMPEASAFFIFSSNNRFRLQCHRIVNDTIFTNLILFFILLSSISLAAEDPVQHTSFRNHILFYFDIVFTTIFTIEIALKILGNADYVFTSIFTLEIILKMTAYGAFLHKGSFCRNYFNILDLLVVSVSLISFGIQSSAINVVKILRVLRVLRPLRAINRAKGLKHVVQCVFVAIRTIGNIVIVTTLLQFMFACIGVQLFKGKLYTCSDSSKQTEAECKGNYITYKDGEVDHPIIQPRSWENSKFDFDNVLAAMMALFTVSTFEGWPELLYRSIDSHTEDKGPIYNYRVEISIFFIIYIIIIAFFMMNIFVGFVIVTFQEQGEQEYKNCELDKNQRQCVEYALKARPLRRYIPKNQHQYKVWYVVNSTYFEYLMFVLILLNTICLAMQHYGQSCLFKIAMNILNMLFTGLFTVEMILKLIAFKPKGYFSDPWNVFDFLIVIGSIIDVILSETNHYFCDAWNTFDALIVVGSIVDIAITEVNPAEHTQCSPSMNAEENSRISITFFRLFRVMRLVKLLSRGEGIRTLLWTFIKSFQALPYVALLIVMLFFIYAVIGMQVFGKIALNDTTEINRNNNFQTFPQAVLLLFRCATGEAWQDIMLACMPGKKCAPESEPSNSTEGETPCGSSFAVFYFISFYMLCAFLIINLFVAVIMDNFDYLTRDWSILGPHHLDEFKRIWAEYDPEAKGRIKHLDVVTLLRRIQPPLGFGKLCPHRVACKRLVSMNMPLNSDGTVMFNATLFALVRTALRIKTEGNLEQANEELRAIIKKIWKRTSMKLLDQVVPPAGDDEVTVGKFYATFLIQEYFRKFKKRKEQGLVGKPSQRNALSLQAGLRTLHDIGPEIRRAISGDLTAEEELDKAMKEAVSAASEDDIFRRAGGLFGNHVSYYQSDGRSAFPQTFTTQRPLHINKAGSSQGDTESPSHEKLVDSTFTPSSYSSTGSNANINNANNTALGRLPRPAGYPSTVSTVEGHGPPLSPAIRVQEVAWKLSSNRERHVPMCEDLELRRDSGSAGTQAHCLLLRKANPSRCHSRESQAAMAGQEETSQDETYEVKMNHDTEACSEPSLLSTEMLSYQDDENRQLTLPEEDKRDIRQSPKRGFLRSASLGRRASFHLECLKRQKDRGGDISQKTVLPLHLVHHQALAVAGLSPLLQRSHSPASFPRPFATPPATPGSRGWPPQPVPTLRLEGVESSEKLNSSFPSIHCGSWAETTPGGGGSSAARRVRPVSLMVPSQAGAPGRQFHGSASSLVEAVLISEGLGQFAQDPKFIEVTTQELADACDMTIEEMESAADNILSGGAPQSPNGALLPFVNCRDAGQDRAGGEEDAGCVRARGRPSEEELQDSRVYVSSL

`O=C(NCc1ncc(C(F)(F)F)cc1Cl)c1ccc2c(c1)C1(CCS(=O)(=O)CC1)[C@H](C1CC1)N2S(=O)(=O)c1ccc(F)cc1` [BAY-784] gave an inhibition (Rattus norvegicus [1]) of 4%, an inhibition [2] of 56% and an inhibition [3] of -3%. The inhibition (Mus musculus) was 1%, the inhibition [4] was 1% and the inhibition [5] was 25%. The inhibition [6] was 3%, the inhibition [7] was 11% and the Ki (Cannabinoid receptor 1) was 2570 nM. For the same molecule, the inhibition (Rattus norvegicus [8]) was 16%, the inhibition [9] was 5% and the inhibition [10] was 0%. The inhibition [11] was -8.25%, the inhibition [12] was 5% and the inhibition [13] was 12%. The inhibition [14] was -7%, the inhibition [15] was 0% and the inhibition at 90 min, 10 µM [16] was 26% (not active). For the same molecule, the inhibition [17] was 17%, the inhibition [18] was 2% and the inhibition [19] was 0%. It also gave an inhibition (Rattus norvegicus [20]) of 7.97%.
